Laboratory results: the supplement of paper PMC10307832

Experiments:
Test in all cases: relative viability (nuclei count vs DMSO), 5 days (fraction); higher = more cells survive
[1] = compound: CN(c1ncccc1CNc1nc(Nc2ccc3c(c2)CC(=O)N3)ncc1C(F)(F)F)S(C)(=O)=O
In short: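 On vehicle-anchored 1536-well plates, lung cancer cell lines held overnight at 37 °C were pinned with five library-drug doses (not always all listed) spaced by √10. With no medium change over 5 days, they were then fixed, permeabilised and Hoechst-stained in one step and imaged at 4×. MetaXpress counted nuclei, and viability is the median across plates of treated-well over vehicle-well nuclei. Acceptance needed control CV below 25% and at least one doubling.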

[2] = compound: CN(c1ncccc1CNc1nc(Nc2ccc3c(c2)CC(=O)N3)ncc1C(F)(F)F)S(C)(=O)=O + CC(=O)Nc1cccc(-n2c(=O)n(C3CC3)c(=O)c3c(Nc4ccc(I)cc4F)n(C)c(=O)c(C)c32)c1 [Trametinib] (partner 0.02 µM)
In short: (§1)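 Nuclei were stained with Hoechst during a one-step fixation (final 0.05% Triton X-100, 1% formaldehyde, 1 ug/ml Hoechst) carried out 5 days after dosing, then counted on 4× images. The cells, lung cancer lines in 1536-well plates, had been dosed by pin tool the day after seeding with one drug alone or a fixed anchor-drug dose plus five library-drug doses (not always all listed) in √10 steps. Relative viability is the nuclei count in treated wells divided by that in vehicle wells, and each value is the median of duplicate plates.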

[3] = compound: CN(c1ncccc1CNc1nc(Nc2ccc3c(c2)CC(=O)N3)ncc1C(F)(F)F)S(C)(=O)=O + Cc1cc(Nc2cc(N3CCN(C)CC3)nc(Sc3ccc(NC(=O)C4CC4)cc3)n2)n[nH]1 [Tozasertib] (partner 0.1 µM)
In short: as §1

[4] = compound: CN(c1ncccc1CNc1nc(Nc2ccc3c(c2)CC(=O)N3)ncc1C(F)(F)F)S(C)(=O)=O + NC(=O)Nc1cc(-c2cccc(F)c2)sc1C(=O)N[C@H]1CCCNC1 [AZD7762] (partner 0.2 µM)
In short: as §1

Cell Line	relative viability ([1]; 0.01 µM)	relative viability ([1]; 0.03162 µM)	relative viability ([1]; 0.1 µM)	relative viability ([1]; 0.3162 µM)	relative viability ([1]; 1 µM)	relative viability ([2]; first compound 0.01 µM)	relative viability ([2]; first compound 0.03162 µM)	relative viability ([2]; first compound 0.1 µM)	relative viability ([2]; first compound 0.3162 µM)	relative viability ([2]; first compound 1 µM)	relative viability ([3]; first compound 0.01 µM)	relative viability ([3]; first compound 0.03162 µM)	relative viability ([3]; first compound 0.1 µM)	relative viability ([3]; first compound 0.3162 µM)	relative viability ([3]; first compound 1 µM)	relative viability ([4]; first compound 0.01 µM)	relative viability ([4]; first compound 0.03162 µM)	relative viability ([4]; first compound 0.1 µM)	relative viability ([4]; first compound 0.3162 µM)	relative viability ([4]; first compound 1 µM)
LXF-289	1.09	1.05	1.01	0.991	1.01	0.706	0.693	0.648	0.664	0.633	0.176	0.178	0.242	0.18	0.17	1.16	1.17	1.1	1.13	1.2
HCC-44	0.956	0.941	0.917	1	0.984	1.02	1.05	0.959	1.09	1.12	1.02	0.926	0.94		0.804	0.948	1.02	0.969	0.967	0.964
PC-14	1.09	1.09	1.05	0.982	0.963	0.82	0.909	0.891	0.726	0.619	0.531	0.705	0.54	0.59	0.52	0.393	0.443	0.426	0.385	0.311
HOP-62	1.07	1.08	0.99	0.979	0.98	0.353	0.438	0.379	0.332	0.306	0.408	0.42	0.391	0.318	0.262	0.742	0.776	0.531	0.75	0.628
NCI-H358	0.943	0.973	0.868	0.838	0.664	0.12	0.125	0.108	0.126	0.0973	0.0908	0.102	0.0923	0.103	0.0817	0.552	0.553	0.381	0.533	0.339
NCI-H1666	1.01	0.953	0.965	0.818	0.719	0.902	0.853	0.762	0.838	0.658	0.606	0.615	0.514	0.725	0.362	0.978	0.834	0.838	0.932	0.847
NCI-H1355	1.03	1.03	0.954	0.995	0.948	0.361	0.41	0.439	0.384	0.357	0.538	0.513	0.557	0.496	0.501	0.866	0.864	0.944	0.732	0.697
HCC-827	1.05	1.08	1.04	1.01	0.989	0.574	0.517	0.496	0.56	0.495	0.372	0.455	0.401	0.436	0.43	0.202	0.227	0.25	0.284	0.331
HARA	0.943	0.757	0.937	0.874	0.787	0.816	0.63	0.439	0.63	0.723	0.11	0.117	0.116	0.0944	0.0785	0.49	0.351	0.368	0.355	0.455
HCC-366	0.997	1.04	1.02	1	1.02	0.41	0.398	0.296	0.303	0.308	0.129	0.143	0.126	0.0925	0.0651	0.378	0.329	0.319	0.288	0.34
NCI-H322M	1	1.03	0.917	1.12	1.12	0.432	0.518	0.522	0.479	0.51	0.505	0.504	0.491	0.504	0.472	0.584	0.556	0.62	0.663	0.813
NCI-H2347	1.09	0.942	0.978	0.877	0.829	0.276	0.268	0.27	0.277	0.255	0.544	0.626	0.672	0.44	0.478	0.818	0.654	0.782	0.733	0.685
NCI-H1975	1.01	0.964	0.927	0.931	0.95	0.358	0.348	0.461	0.342	0.315	0.737	0.793	0.784	0.665	0.46	0.85	0.839	0.822	0.645	0.755
NCI-H2342	0.884	1.02	0.791	0.962	0.854	0.906	0.819	0.753	0.774	0.806	0.524	0.493	0.561	0.409	0.489	0.506	0.516	0.472	0.402	0.404
A-427	1.01	1.02	0.944	1.02	1.05	0.722	0.791	0.67	0.821	0.741	0.223	0.191	0.207	0.186	0.211	0.798	0.81	0.874	1.14	0.907
LCLC-97TM1	1	1.11	0.881	0.966	0.821	0.207	0.189	0.184	0.206	0.124	0.281	0.194	0.256	0.218	0.18	0.264	0.278	0.218	0.267	0.195
